This is an account of results in US10150760B2, “Compounds for use in preparing heterocyclic triazole agonists of the APJ receptor” (AMGEN INC., priority 2016, dated 2018).

human APJ receptor, sequence (P35414 whole entry): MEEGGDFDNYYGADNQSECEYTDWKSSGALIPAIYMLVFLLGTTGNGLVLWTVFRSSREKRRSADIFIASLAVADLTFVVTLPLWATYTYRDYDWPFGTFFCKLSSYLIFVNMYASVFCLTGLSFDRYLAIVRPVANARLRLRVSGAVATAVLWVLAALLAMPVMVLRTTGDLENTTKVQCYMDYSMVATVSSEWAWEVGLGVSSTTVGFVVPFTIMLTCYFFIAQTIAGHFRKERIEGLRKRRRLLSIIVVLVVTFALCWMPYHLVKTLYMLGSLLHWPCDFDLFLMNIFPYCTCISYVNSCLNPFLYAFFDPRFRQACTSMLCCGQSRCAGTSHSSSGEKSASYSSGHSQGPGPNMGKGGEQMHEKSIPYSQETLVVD

For this assay, the target named is human APJ receptor (Homo sapiens (Human), UniProt P35414). The assay is described as follows: [35S]GTPγS binding assay on membranes from CHO cells stably expressing human APJ receptor. Format: biochemical. Conditions: read-out: Activity hAPJ SPA EC50 IP. The procedure, abridged:
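Membranes from CHO cells stably expressing human APJ incubated with ligand, 0.2 nM [35S]GTPγS and WGA SPA beads in HEPES pH 7.5 with 5 mM MgCl2, 200 mM NaCl, 3 μM GDP, 90 min at RT. Nonspecific binding defined with 100 μM GTPγS; EC50 by non-linear regression.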
For orientation: GTPγS resists hydrolysis and so accumulates on activated G proteins.
The EC50 is the concentration at which the effect is half-maximal. As for “(1R,2S)-N-(4-(1,3-dimethoxy-2-propanyl)-5-((2R,5R)-5-methyltetrahydro-2-furanyl)-4H-1,2,4-triazol-3-yl)-1-methoxy-1-(5-methoxy-2-pyrazinyl)-2-propanesulfonamide or (1R,2S)-N-(4-(1,3-dimethoxy-2-propanyl)-5-((2S,5S)-5-methyltetrahydro-2-furanyl)-4H-1,2,4-triazol-3-yl)-1-methoxy-1-(5-methoxy-2-pyrazinyl)-2-propanesulfonamide [Example 378.0]”, the EC50 came to 170 nM.

Turning to “(1R,2S)-N-(4-(1,3-dimethoxy-2-propanyl)-5-((2R,5R)-5-methyltetrahydro-2-furanyl)-4H-1,2,4-triazol-3-yl)-1-methoxy-1-(5-methoxy-2-pyrazinyl)-2-propanesulfonamide or (1R,2S)-N-(4-(1,3-dimethoxy-2-propanyl)-5-((2S,5S)-5-methyltetrahydro-2-furanyl)-4H-1,2,4-triazol-3-yl)-1-methoxy-1-(5-methoxy-2-pyrazinyl)-2-propanesulfonamide [Example 379.0]”, the EC50 worked out at 21 nM.

With “(1R,2S)-N-(4-(2,6-dimethoxyphenyl)-5-((R)-1,4-dioxan-2-yl)-4H-1,2,4-triazol-3-yl)-1-ethoxy-1-(5-methylpyrimidin-2-yl)propane-2-sulfonamide or (1R,2S)-N-(4-(2,6-dimethoxyphenyl)-5-((S)-1,4-dioxan-2-yl)-4H-1,2,4-triazol-3-yl)-1-ethoxy-1-(5-methylpyrimidin-2-yl)propane-2-sulfonamide [Example 203.0]”, the EC50 is 33 nM.

Take “(1R,2S)-N-(4-(2,6-dimethoxyphenyl)-5-((R)-1,4-dioxan-2-yl)-4H-1,2,4-triazol-3-yl)-1-ethoxy-1-(5-methylpyrimidin-2-yl)propane-2-sulfonamide or (1R,2S)-N-(4-(2,6-dimethoxyphenyl)-5-((S)-1,4-dioxan-2-yl)-4H-1,2,4-triazol-3-yl)-1-ethoxy-1-(5-methypyrimidin-2-yl)propane-2-sulfonamide [Example 204.0]”: the EC50 was 100 nM.

“(1R,2S)-N-(4-(2,6-dimethoxyphenyl)-5-((R)-1,4-dioxan-2-yl)-4H-1,2,4-triazol-3-yl)-1-methoxy-1-(5-methylpyrimidin-2-yl)propane-2-sulfonamide or (1R,2S)-N-(4-(2,6-dimethoxyphenyl)-5-((S)-1,4-dioxan-2-yl)-4H-1,2,4-triazol-3-yl)-1-methoxy-1-(5-methylpyrimidin-2-yl)propane-2-sulfonamide [Example 202.0]”: the EC50 is 120 nM.

Take “(1R,2S)-N-(4-(2,6-dimethoxyphenyl)-5-((S)-3-oxoisoindolin-1-yl)-4H-1,2,4-triazol-3-yl)-1-methoxy-1-(5-methylpyrimidin-2-yl)propane-2-sulfonamide or (1R,2S)-N-(4-(2,6-dimethoxyphenyl)-5-((R)-3-oxoisoindolin-1-yl)-4H-1,2,4-triazol-3-yl)-1-methoxy-1-(5-methylpyrimidin-2-yl)propane-2-sulfonamide [Example 236.0]”: the EC50 was greater than 4200 nM.

For the substance “(1R,2S)-N-(4-(2,6-dimethoxyphenyl)-5-((S)-3-oxoisoindolin-1-yl)-4H-1,2,4-triazol-3-yl)-1-methoxy-1-(5-methylpyrimidin-2-yl)propane-2-sulfonamide or (1R,2S)-N-(4-(2,6-dimethoxyphenyl)-5-((R)-3-oxoisoindolin-1-yl)-4H-1,2,4-triazol-3-yl)-1-methoxy-1-(5-methylpyrimidin-2-yl)propane-2-sulfonamide [Example 237.0]”, the EC50 is 590 nM.

As for “(1R,2S)-N-(4-(2,6-dimethoxyphenyl)-5-((S)-tetrahydro-2H-pyran-3-yl)-4H-1,2,4-triazol-3-yl)-1-hydroxy-1-(5-methylpyrimidin-2-yl)propane-2-sulfonamide or (1R,2S)-N-(4-(2,6-dimethoxyphenyl)-5-((R)-tetrahydro-2H-pyran-3-yl)-4H-1,2,4-triazol-3-yl)-1-hydroxy-1-(5-methylpyrimidin-2-yl)propane-2-sulfonamde [Example 194.0]”, the EC50 turned out to be 20 nM.

As for “(1R,2S)-N-(4-(2,6-dimethoxyphenyl)-5-((S)-tetrahydro-2H-pyran-3-yl)-4H-1,2,4-triazol-3-yl)-1-hydroxy-1-(5-methylpyrimidin-2-yl)propane-2-sulfonamide or (1R,2S)-N-(4-(2,6-dimethoxyphenyl)-5-((R)-tetrahydro-2H-pyran-3-yl)-4H-1,2,4-triazol-3-yl)-1-hydroxy-1-(5-methylpyrimidin-2-yl)propane-2-sulfonamide [Example 193.0]”, the EC50 was 180 nM.

Turning to “(1R,2S)-N-(4-(4,6-dimethoxypyrimidin-5-yl)-5-((S)-tetrahydrofuran-2-yl)-4H-1,2,4-triazol-3-yl)-1-methoxy-1-(5-methylpyrazin-2-yl)propane-2-sulfonamide or (1R,2S)-N-(4-(4,6-dimethoxypyrimidin-5-yl)-5-((R)-tetrahydrofuran-2-yl)-4H-1,2,4-triazol-3-yl)-1-methoxy-1-(5-methylpyrazin-2-yl)propane-2-sulfonamide [Example 185.0]”, the EC50 turned out to be 510 nM.

Consider “(1R,2S)-N-(4-(4,6-dimethoxypyrimidin-5-yl)-5-((S)-tetrahydrofuran-2-yl)-4H-1,2,4-triazol-3-yl)-1-methoxy-1-(5-methylpyrazin-2-yl)propane-2-sulfonamide or (1R,2S)-N-(4-(4,6-dimethoxypyrimidin-5-yl)-5-((R)-tetrahydrofuran-2-yl)-4H-1,2,4-triazol-3-yl)-1-methoxy-1-(5-methylpyrazin-2-yl)propane-2-sulfonamide [Example 186.0]”, for which the EC50 amounted to 80 nM.

Consider “(1R,2S)-N-(4-([1,1′-bi(cyclopropyl)]-1-yl)-5-((2R)-1,4-dioxan-2-yl)-4H-1,2,4-triazol-3-yl)-1-methoxy-1-(5-methyl-2-pyrazinyl)-2-propanesulfonamide or (1R,2S)-N-(4-([1,1′-bi(cyclopropyl)]-1-yl)-5-((2S)-1,4-dioxan-2-yl)-4H-1,2,4-triazol-3-yl)-1-methoxy-1-(5-methyl-2-pyrazinyl)-2-propanesulfonamide [Example 328.0]”, for which the EC50 was 230 nM.

Regarding “(1R,2S)-N-(4-([1,1′-bi(cyclopropyl)]-1-yl)-5-((2R)-1,4-dioxan-2-yl)-4H-1,2,4-triazol-3-yl)-1-methoxy-1-(5-methyl-2-pyrazinyl)-2-propanesulfonamide or (1R,2S)-N-(4-([1,1′-bi(cyclopropyl)]-1-yl)-5-((2S)-1,4-dioxan-2-yl)-4H-1,2,4-triazol-3-yl)-1-methoxy-1-(5-methyl-2-pyrazinyl)-2-propanesulfonamide [Example 329.0]”, the EC50 amounted to 1300 nM.

Consider “(1R,2S)-N-(4-([1,1′-bi(cyclopropyl)]-1-yl)-5-((2S)-1,4-dioxan-2-yl)-4H-1,2,4-triazol-3-yl)-1-(5-chloro-2-pyrimidinyl)-1-methoxy-2-propanesulfonamide or (1R,2S)-N-(4-([1,1′-bi(cyclopropyl)]-1-yl)-5-((2R)-1,4-dioxan-2-yl)-4H-1,2,4-triazol-3-yl)-1-(5-chloro-2-pyrimidinyl)-1-methoxy-2-propanesulfonamide [Example 325.0]”, for which the concentration giving a half-maximal response (EC50) worked out at 14 nM.

For “(1R,2S)-N-(4-([1,1′-bi(cyclopropyl)]-1-yl)-5-((2S)-1,4-dioxan-2-yl)-4H-1,2,4-triazol-3-yl)-1-(5-chloro-2-pyrimidinyl)-1-methoxy-2-propanesulfonamide or (1R,2S)-N-(4-([1,1′-bi(cyclopropyl)]-1-yl)-5-((2R)-1,4-dioxan-2-yl)-4H-1,2,4-triazol-3-yl)-1-(5-chloro-2-pyrimidinyl)-1-methoxy-2-propanesulfonamide [Example 326.0]”, the EC50 was 1700 nM.

For the substance “(1R,2S)-N-(5-((R)-1,4-dioxan-2-yl)-4-(1-(pyridin-3-yl)cyclopropyl)-4H-1,2,4-triazol-3-yl)-1-(5-chloropyrimidin-2-yl)-1-methoxypropane-2-sulfonamide or (1R,2S)-N-(5-((S)-1,4-dioxan-2-yl)-4-(1-(pyridin-3-yl)cyclopropyl)-4H-1,2,4-triazol-3-yl)-1-(5-chloropyrimidin-2-yl)-1-methoxypropane-2-sulfonamide [Example 295.0]”, the EC50 was 16 nM.

With “(1R,2S)-N-(5-((R)-1,4-dioxan-2-yl)-4-(1-(pyridin-3-yl)cyclopropyl)-4H-1,2,4-triazol-3-yl)-1-(5-chloropyrimidin-2-yl)-1-methoxypropane-2-sulfonamide or (1R,2S)-N-(5-((S)-1,4-dioxan-2-yl)-4-(1-(pyridin-3-yl)cyclopropyl)-4H-1,2,4-triazol-3-yl)-1-(5-chloropyrimidin-2-yl)-1-methoxypropane-2-sulfonamide [Example 296.0]”, the EC50 is 170 nM.

For “(1R,2S)-N-(5-((R)-2,3-dihydrobenzofuran-2-yl)-4-(4,6-dimethoxypyrimidin-5-yl)-4H-1,2,4-triazol-3-yl)-1-methoxy-1-(5-methylpyrimidin-2-yl)propane-2-sulfonamide or (1R,2S)-N-(5-((S)-2,3-dihydrobenzofuran-2-yl)-4-(4,6-dimethoxypyrimidin-5-yl)-4H-1,2,4-triazol-3-yl)-1-methoxy-1-(5-methylpyrimidin-2-yl)propane-2-sulfonamide [Example 233.0]”, the EC50 was found to be 1270 nM.

Take “(1R,2S)-N-(5-((R)-2,3-dihydrobenzofuran-3-yl)-4-(2,6-dimethoxyphenyl)-4H-1,2,4-triazol-3-yl)-1-methoxy-1-(5-methylpyrimidin-2-yl)propane-2-sulfonamide or (1R,2S)-N-(5-((S)-2,3-dihydrobenzofuran-3-yl)-4-(2,6-dimethoxyphenyl)-4H-1,2,4-triazol-3-yl)-1-methoxy-1-(5-methylpyrimidin-2-yl)propane-2-sulfonamide [Example 238.0]”: the EC50 came to 810 nM.
